Several values for one entry are separate records, joined by “and”; a condition that tells them apart may be missing. Equal values may be shown once.
What was measured:
PDE4 subtypes, A-D = conditions: cited from earlier work
IPF patients [1] = assay: Phase II clinical trial in IPF patients: change from baseline in Forced Vital Capacity (FVC) over 12 weeks (MMRM); type: in vivo, human; conditions: 18 mg b.i.d.
human lung fibroblasts = conditions: combination with nintedanib; cited from earlier work
IPF patients [2] = assay: Phase II clinical trial in IPF patients: completion / premature discontinuation of observation and treatment period; type: in vivo, human; conditions: 18 mg b.i.d.
Method: The participants were divided into 2 groups by chance (the “active agent group” and the “placebo group”). […] One 12 mg placebo tablet and one 6 mg placebo tablet (both containing no active ingredient, see Table 1) was administered orally to the patients of the second group twice daily (b.i.d.).
The “active agent group” and the “placebo group” were further distributed to two different groups regarding background medication: the “AF-group” (“antifibrotic background medication group”) and the “Non-AF-group” (“no antifibrotic background medication group”). […] The combination of both nintedanib and pirfenidone as background medication was not allowed in the “AF-group”.
The trial was a randomised, double-blind, placebo-controlled parallel group study.

[3] = AF-group (antifibrotic background), listed as Comp. of Form. III
[4] = AF-group (antifibrotic background), listed as active agent
[5] = AF-group, nintedanib background
[6] = AF-group, pirfenidone background
[7] = pooled background therapy (Non-AF+AF)
[8] = AF-group (antifibrotic background)

[O-][S@+]1CCc2nc(N3CCC(c4ncc(Cl)cn4)CC3)nc(NC3(CO)CCC3)c21 [Comp. of form. III]
Preferential enzymatic inhibition among the PDE4 subtypes (in words) (PDE4 subtypes, A-D): inhibit preferentially the PDE4 B subtype
Adjusted mean change from baseline in FVC to week 12 (MMRM) (IPF patients [1]; [3]): 2.72 mL
Adjusted mean difference vs. Placebo in change from baseline in FVC to week 12 (MMRM) (IPF patients [1]; [3]): 80.4 mL and 80.42 mL
Adjusted mean change from baseline in FVC to week 12 (MMRM) (IPF patients [1]; [4]): +2.72 ml
Adjusted mean difference vs. Placebo in change from baseline in FVC to week 12 (MMRM) (IPF patients [1]; [4]): 80.42 mL
Adjusted mean change from baseline in FVC to week 12 (MMRM) (IPF patients [1]; [5]): 23.41 mL
Adjusted mean difference vs. Placebo in change from baseline in FVC to week 12 (MMRM) (IPF patients [1]; [5]): 105.43 mL
Week 12 Mean FVC (IPF patients [1]; [5]): 2787.37 mL
Adjusted mean change from baseline in FVC to week 12 (MMRM) (IPF patients [1]; AF-group, nintedanib background, listed as PDE4-inhibitor of formula III): +23.41 ml
Adjusted mean change from baseline in FVC to week 12 (MMRM) (IPF patients [1]; [6]): -18.76 mL
Adjusted mean difference vs. Placebo in change from baseline in FVC to week 12 (MMRM) (IPF patients [1]; [6]): 61.30 mL
Week 12 Mean FVC (IPF patients [1]; [6]): 2879.35 mL
Adjusted mean change from baseline in FVC to week 12 (MMRM) (IPF patients [1]; AF-group, pirfenidone background, listed as PDE4-inhibitor of formula III): -18.67 mL
Adjusted mean change from baseline in FVC to week 12 (MMRM) (IPF patients [1]; Non-AF-group): 6.10 mL
Adjusted mean difference vs. Placebo in change from baseline in FVC to week 12 (MMRM) (IPF patients [1]; Non-AF-group): 101.7 mL and 101.72 mL
Adjusted mean difference vs. Placebo in change from baseline in FVC to week 12 (MMRM) (IPF patients [1]; Non-AF-group, listed as PDE4-inhibitor of formula III): 101.72 mL
Adjusted mean difference vs. Placebo in change from baseline in FVC to week 12 (MMRM) (IPF patients [1]; Non-AF-group, listed as active agent): 101.72 mL
Adjusted mean change from baseline in FVC to week 12 (MMRM) (IPF patients [1]; [7]): 4.59 mL
Adjusted mean difference vs. Placebo in change from baseline in FVC to week 12 (MMRM) (IPF patients [1]; [7]): 88.38 mL
Adjusted mean change from baseline in FVC to week 12 (MMRM) (IPF patients [1]; pooled background therapy (Non-AF+AF), listed as active agent): -4.59 mL
Effect on fibroblast proliferation (in words) (human lung fibroblasts): synergistic overadditive effect
Not completed planned treatment period (premature discontinuation), patients % (IPF patients [2]; [8]): 20.4%
Not completed planned treatment period (premature discontinuation), patients N (IPF patients [2]; [8]): 10
Observation period not completed: Death, patients % (IPF patients [2]; [8]): 2.0%
Observation period not completed: Death, patients N (IPF patients [2]; [8]): 1
Treatment period not completed: Adverse Event, patients % (IPF patients [2]; [8]): 20.4%
Treatment period not completed: Adverse Event, patients N (IPF patients [2]; [8]): 10
Not completed planned treatment period (premature discontinuation), patients % (IPF patients [2]; Non-AF-group): 10.4%
Not completed planned treatment period (premature discontinuation), patients N (IPF patients [2]; Non-AF-group): 5
Observation period not completed: Death, patients % (IPF patients [2]; Non-AF-group): 2.1%
Observation period not completed: Death, patients N (IPF patients [2]; Non-AF-group): 1
Treatment period not completed: Adverse Event, patients % (IPF patients [2]; Non-AF-group): 6.3%
Treatment period not completed: Adverse Event, patients N (IPF patients [2]; Non-AF-group): 3

— patent publication US20230190754A1, “Therapeutic combinations for the treatment of Progressive Fibrosing interstitial lung diseases” (Boehringer Ingelheim International GmbH, priority 2021, published 2023)
